Laboratory results reported in patent US10001469B2, “Use of GPR83 to identify pruritus-related substances” (University of Miyazaki, priority 2010, dated 2018).
“Also recorded” adds a separate entry of the source. Non-standard residues stand in square brackets, D forms with d. No end group written: not given here.

Legend:
[1] = molecular target: NK1R (Homo sapiens, UniProt P25103); settings: Non-patent Documents 4, 5, and 6; cited from earlier work
[2] = tested on: thermal hyperalgesia; settings: intrathecal administration; Non-patent Documents 7, 9, 10, 11; cited from earlier work
[3] = tested on: intrathecally catheterized rats; settings: depending on the concentrations of peptides administered, Non-patent Document 7; cited from earlier work
[4] = tested on: pain-related behavior; settings: cited from earlier work; for induction of pain-related behavior (e.g., scratching behavior): administered to a rat or a mouse, Non-patent Document 1; for suppression of pain-related behavior resulting from SP: Non-patent Documents 1, 2 and 3
[5] = tested on: histamine-induced itching; assay: Histamine-induced itching behavior; assay type: in vivo, rat; settings: for itching behavior resulting from histamine administration (scratching events, 20 minutes): 10^−2 M (100 nmol/10 μl) peptide intrathecal immediately before s.c. histamine, vs saline
Protocol: (§1) Immediately after intrathecal administration of 10^−2 M (100 nmol/10 μl) DTrp^2-nSP, DTrp^2-nHK-1, or saline (10 μl) to intrathecally catheterized rats via catheters, an itching inducer (10^−3 M histamine (0.25 mg/50 μl) or 1.13×10^−4 M 5-HT (0.25 mg/50 μl)) was subcutaneously administered to the nape of the neck, and then itching behavior was determined for 20 minutes, thereby evaluating the degree of itching.
(§2) FIG. 8 and FIG. 9 show itching behavior resulting from administration of histamine and 5-HT. The vertical axis indicates the determined number of scratching events for a 20-minute period after histamine and 5-HT administration. The horizontal axis indicates DTrp^2-nSP, DTrp^2-nHK-1, and saline administered.
(§3) 4.5 mM (45 pmol/10 μl) GPR83 siRNA, 4.5 mM (45 pmol/10 μl) NK1R siRNA as target groups, and 10 μl of HVJ-E (reagent for introduction of siRNA) were administered to intrathecally catheterized rats via catheters. On day 4 after administration, itching inducers (10^−3 M histamine (0.25 mg/50 μl) and 1.13×10^−4 M 5-HT (0.25 mg/50 μl)) were each subcutaneously administered to the nape of the neck, itching behavior was determined for a 20-minute period after administration, and thus the degree of itching was evaluated.
(§4) FIG. 15 and FIG. 16 show the results of observing itching behavior resulting from histamine administration and 5-HT administration. The vertical axis indicates the number of scratching events during a 20-minute period after administration of histamine and 5-HT, and the horizontal axis indicates HVJ-E (reagent for introduction of siRNA), GPR83 siRNA, and NK1R siRNA administered.

[6] = tested on: 5-HT-induced itching; assay: Serotonin (5-HT)-induced itching behavior; assay type: in vivo, rat; settings: for itching behavior resulting from 5-HT administration (scratching events, 20 minutes): 10^−2 M (100 nmol/10 μl) peptide intrathecal immediately before s.c. 5-HT, vs saline
Protocol: as §1, §2, §3, §4

[7] = tested on: SP-induced scratching behavior; assay: SP-induced scratching behavior after intrathecal pre-administration of peptide or siRNA; assay type: in vivo, rat
Protocol: In addition, the number of scratching events induced by SP administration at 5 minutes after saline administration was designated as a control, and was specifically designated as 100%.
In addition, the number of scratching events induced by SP administration at 5 minutes after saline administration was designated as a control and was specifically designated as 100%.
10^−3 M (10 nmol/10 μl) N-terminal regions (nSP and nHK-1) and the following peptides subjected to substitution were administered to intrathecally catheterized rats via catheters.
5 minutes after administration, the number of scratching events induced by administration of 10^−3 M (10 nmol/10 μl) SP was evaluated. In addition, the number of scratching events induced by administration of 10^−3 M SP at 5 minutes after saline administration was designated as a control and was specifically designated as 100%.
10^−3 M (10 nmol/10 μl) DTrp^2-nSP and DTrp^2-nHK-1 were administered to intrathecally catheterized rats via catheters, and then the number of scratching events induced by administration of 10^−3 M (10 nmol/10 μl) SP was evaluated. […] In addition, the number of scratching events induced by SP administration at 5 minutes after saline administration was designated as a control and was specifically designated as 100%.
siRNA was prepared using an HVJ Envelop Vector Kit (ISHIHARA SANGYO KAISHA, LTD) according to the protocols of the kit. 10 μl of an siRNA solution was administered to intrathecally catheterized rats via catheters. With administration of only HVJ-E and administration of mismatch siRNA as controls, time-course changes in scratching events resulting from SP or HK-1 were evaluated.
Next, NK1R siRNA was intrathecally administered and then SP was intrathecally administered on days 4, 7, 10, and 14. […] The number of SP-induced scratching events was gradually recovered after siRNA administration.

[8] = tested on: intrathecally catheterized rats; assay: Scratching behavior after intrathecal administration of the peptide alone; assay type: in vivo, rat; settings: 10^−3 M (10 nmol/10 μl) intrathecal
Protocol: 10^−3 M (10 nmol/10 μl) HK-1 and SP, the N-terminal regions (nHK-1 and nSP), and the C-terminal regions (cHK-1 and cSP) were administered to intrathecally catheterized rats via catheters. Ethological changes beginning immediately after administration were evaluated using the number of scratching events during a 5-minute period after each peptide administration as an indicator. Here, the expression “10^−3 M (10 nmol/10 μl) . . . administered” refers to administration of 10 μl (full dose) of a solution containing 10 nmol of a peptide (e.g., nHK-1) (that is, a 10^−3 M solution). The same applies to the following similar expressions. […] In these graphs, the number of scratching events induced by administration of 10^−3 M (10 nmol/10 μl) SP or HK-1 alone is designated as a control, and is specifically designated as 100%.

[9] = tested on: SP-induced scratching behavior; assay: SP-induced scratching behavior after intrathecal pre-administration of peptide or siRNA; assay type: in vivo, rat; settings: 5 minutes before SP
[10] = tested on: formalin-induced inflammatory pain; assay: Formalin-induced pain behavior (flinching) after intraplantar formalin; assay type: in vivo, rat; settings: 10^−2 M (100 nmol/10 μl) peptide intrathecal 5 minutes before 2% formalin; for pain behavior (flinching events) during phase I: 0-10 minutes; for pain behavior (flinching events) during phase II: 10-60 minutes
Protocol: 10^−2 M (100 nmol/10 μl) nSP and nHK-1, or saline (10 μl) was administered to intrathecally catheterized rats via catheters, and then 5 minutes later, 50 μl of 2% formalin was administered subeutaneously to the hind paws of rats. The number of flinching events (pain behavior) was determined for a 60-minute period after formalin administration, so that the degree of pain was evaluated. During the 10-minute period after formalin administration (referred to as phase I), pain behavior was determined once every 2 minutes (1 minute per determination). During the period from 10 minutes to 60 minutes after formalin administration (referred to as phase 11), pain behavior was determined once every 5 minutes (1 minute per determination), so that the degree of pain was evaluated. During phase I, behavior (phasic pain) resulting from chemical stimulation accompanying formalin administration was observed. During phase II, […] following the phasic pain was observed.
The horizontal axis indicates time (minutes) after formalin administration and the vertical axis indicates the determined number of pain behavior events per minute.
4.5 mM (45 pmol/10 μl) GPR83 siRNA, 4.5 mM (45 pmol/10 μl) NK1R siRNA as target groups, 4.5 mM (45 pmol/10 μl) mismatch siRNA (MM siRNA: negative control), and 10 μl of HVJ-E (reagent for introduction of siRNA) were administered to intrathecally catheterized rats via catheters. On day 4 after administration, 50 μl of 2% formalin was administered subcutaneously to the hind paws of rats. The number of flinching events (pain behavior) was determined for a 60-minute period after formalin administration, so that the degree of pain was evaluated. During the 10-minute period after formalin administration (referred to as phase I), pain behavior was determined once every 2 minutes (1 minute per determination). During the period from 10 minutes to 60 minutes after formalin administration (referred to as phase II), pain behavior was determined once every 5 minutes (1 minute per determination), so that the degree of pain was evaluated. During phase I, behavior (phasic pain) resulting from chemical stimulation accompanying formalin administration was observed. During phase II, tonic pain following the phasic pain was observed.

[11] = 10^−3 M (10 nmol/10 μl) peptide intrathecal, administration interval 5 minutes before 10^−3 M SP
[12] = 10^−3 M peptide intrathecal, administration interval 20 minutes
[13] = 10^−3 M peptide intrathecal, administration interval 30 minutes
[14] = 10^−3 M peptide intrathecal, administration interval 10 minutes
[15] = 10^−3 M peptide intrathecal, administration interval 15 minutes
[16] = assumed in view of Examples 1 to 5, not tested

Chain of NK1R (P25103 whole entry, species assumed): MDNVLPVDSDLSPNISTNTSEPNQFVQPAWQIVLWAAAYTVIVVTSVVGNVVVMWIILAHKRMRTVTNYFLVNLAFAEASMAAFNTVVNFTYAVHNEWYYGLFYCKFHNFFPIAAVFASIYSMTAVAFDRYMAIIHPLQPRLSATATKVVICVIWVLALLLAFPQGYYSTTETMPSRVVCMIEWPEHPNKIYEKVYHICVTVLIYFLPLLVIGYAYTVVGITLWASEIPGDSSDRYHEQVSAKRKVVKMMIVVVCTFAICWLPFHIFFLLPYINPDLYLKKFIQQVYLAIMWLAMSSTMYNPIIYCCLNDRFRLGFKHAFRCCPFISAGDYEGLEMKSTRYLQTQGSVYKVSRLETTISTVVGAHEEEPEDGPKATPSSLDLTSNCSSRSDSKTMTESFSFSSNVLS

## Arg-Ser-Arg-Thr-Arg-Gln-Phe-Tyr-Gly-Leu-Met-NH2 (RSRTRQFYGLM-NH2; listed as Homo sapiens) [HK-1]
[1]
  affinity for NK1R: high affinity
[2]
  induction of thermal hyperalgesia: no such reaction at all
[3]
  induction of scratching behavior by intrathecal administration: induces scratching behavior

## Arg-Pro-Lys-Pro-Gln-Gln-Phe-Phe-Gly-Leu-Met-NH2 (RPKPQQFFGLM-NH2; listed as Homo sapiens) [SP]
[4]
  induction of pain-related behavior (e.g., scratching behavior): induces pain-related behavior
[2]
  induction of thermal hyperalgesia: induces thermal hyperalgesia
[3]
  induction of scratching behavior by intrathecal administration: induces scratching behavior

## R[dW]RTR-NH2 [DTrp^2-nHK-1]
[5]
  itching behavior resulting from histamine administration (scratching events, 20 minutes): significantly lowered itching events
[6]
  itching behavior resulting from 5-HT administration (scratching events, 20 minutes): significantly lowered the degree of itching behavior
[7]; [11]
  suppression of the number of SP-induced scratching events: significantly suppress the number of scratching events
[7]; [12]
  suppression of the number of SP-induced scratching events: suppression effect was significantly exhibited; also recorded: maintained significant suppression effects
[7]; [13]
  suppression of the number of SP-induced scratching events: suppression effect disappeared

## R[dW]KPQ-NH2 [DTrp^2-nSP]
[5]
  itching behavior resulting from histamine administration (scratching events, 20 minutes): no difference was found in itching behavior
[6]
  itching behavior resulting from 5-HT administration (scratching events, 20 minutes): no difference was found in the degree of itching behavior
[7]; [11]
  suppression of the number of SP-induced scratching events: significantly suppress the number of scratching events
[7]; [12]
  suppression of the number of SP-induced scratching events: suppression effect was significantly exhibited; also recorded: maintained significant suppression effects
[7]; [13]
  suppression of the number of SP-induced scratching events: suppression effect disappeared

## Phe-Phe-Gly-Leu-Met-NH2 (FFGLM-NH2) [SP(7-11)]
[4]
  induction of pain-related behavior (e.g., scratching behavior): pain-related behavior is induced

## Arg-Pro-Lys-Pro-Gln-Gln-Phe-NH2 (RPKPQQF-NH2) [SP(1-7)]
[4]
  suppression of pain-related behavior resulting from SP: can be suppressed; also recorded: suppress pain-related behavior resulting from SP

## Gln-Phe-Tyr-Gly-Leu-Met-NH2 (QFYGLM-NH2) [cHK-1]
[8]
  scratching behavior on administration of the peptide alone (number of scratching events during a 5-minute period): resulted in scratching behavior

## Arg-Pro-Lys-Pro-Gln-NH2 (RPKPQ-NH2) [nSP]
[9]; 10^−4 M (1 nmol/10 μl) peptide intrathecal
  suppression of scratching behavior resulting from SP administration: suppressed scratching behavior resulting from SP administration
[9]; 10^−5 M (100 pmol/10 μl) peptide intrathecal
  suppression of scratching behavior resulting from SP administration: suppressed scratching behavior resulting from SP administration
[10]
  pain behavior (flinching events) during phase I: pain behavior decreased significantly
  pain behavior (flinching events) during phase II: pain behavior decreased significantly
[8]
  scratching behavior on administration of the peptide alone (number of scratching events during a 5-minute period): no scratching behavior
[7]; [11]
  suppression of the number of SP-induced scratching events: significantly suppress the number of scratching events; also recorded: an effect of suppressing the number of scratching events was exhibited significantly; also recorded: significant effects of suppressing SP-induced scratching behavior
[7]; [14]
  suppression of the number of SP-induced scratching events: suppression effect was exhibited to a significant degree
[7]; [15]
  suppression of the number of SP-induced scratching events: suppression effect disappeared

## Arg-Ser-Arg-Thr-Arg-NH2 (RSRTR-NH2) [nHK-1]
[5]; [16]
  suppression of histamine-induced itching (assumed): suppresses
[6]; [16]
  suppression of 5-HT-induced itching (assumed): suppresses
[10]
  pain behavior (flinching events) during phase I: pain behavior decreased significantly
  pain behavior (flinching events) during phase II: pain behavior decreased significantly
[8]
  scratching behavior on administration of the peptide alone (number of scratching events during a 5-minute period): no scratching behavior
[7]; [11]
  suppression of the number of SP-induced scratching events: significantly suppress the number of scratching events; also recorded: an effect of significantly suppressing scratching behavior; also recorded: significant effects of suppressing SP-induced scratching behavior
[7]; [14]
  suppression of the number of SP-induced scratching events: suppression effect was exhibited to a significant degree
[7]; [15]
  suppression of the number of SP-induced scratching events: suppression effect disappeared

## Arg-Pro-Lys-Pro-Gln-Gln-Phe-Phe-NH2 (RPKPQQFF-NH2) [SP(1-8)]
[4]
  suppression of pain-related behavior resulting from SP: suppress pain-related behavior resulting from SP

## Gln-Phe-Phe-Gly-Leu-Met-NH2 (QFFGLM-NH2) [cSP]
[8]
  scratching behavior on administration of the peptide alone (number of scratching events during a 5-minute period): resulted in scratching behavior
